From US6706855B1, “Antimicrobial polymer” (Avecia Limited, priority 1999, dated 2004)

Assays:
[1] = tested on: Staphylococcus aureus NCIB 9518; assay: Minimum Inhibitory Concentration (MIC) against Staphylococcus aureus; assay type: cell-based; details: Bacteria
Protocol: (§1) The Minimum Inhibitory Concentration (MIC) against a range of fungi and bacteria were determined for each of the antimicrobial copolymers prepared in Examples 1 to 4 and Comparative Example A. The MIC results are shown in Table 3: […]

[2] = tested on: Penicillium funiculosum IMI 114933; assay: Minimum Inhibitory Concentration (MIC) against Penicillium funiculosum; assay type: cell-based; details: Fungi
Protocol: as §1

[3] = tested on: Bacillus subtilis NCIB 1650; assay: Minimum Inhibitory Concentration (MIC) against Bacillus subtilis; assay type: cell-based; details: Bacteria
Protocol: as §1

[4] = tested on: Escherichia coli NCIB 9132; assay: Minimum Inhibitory Concentration (MIC) against Escherichia coli; assay type: cell-based; details: Bacteria
Protocol: as §1

[5] = tested on: Pseudomonas fluorescens (with Lux AB gene) our ref D481; assay: Minimum Inhibitory Concentration (MIC) against Pseudomonas fluorescens; assay type: cell-based; details: Bacteria
Protocol: as §1

[6] = tested on: Klebsiella pneumoniae ATCC 4352; assay: Minimum Inhibitory Concentration (MIC) against Klebsiella pneumoniae; assay type: cell-based; details: Bacteria
Protocol: as §1

[7] = tested on: Pseudomonas aeruginosa NCIB 10421; assay: Minimum Inhibitory Concentration (MIC) against Pseudomonas aeruginosa; assay type: cell-based; details: Bacteria
Protocol: as §1

[8] = tested on: Candida albicans NCYC 10231; assay: Minimum Inhibitory Concentration (MIC) against Candida albicans; assay type: cell-based; details: Fungi
Protocol: as §1

[9] = tested on: a range of fungi and bacteria; assay: MIC against a range of fungi and bacteria, overall statement; assay type: cell-based; details: summary of Table 3; compared to Comparative Example A or to the copolymers
Protocol: as §1

NCCCCCCNc1ccc2c3c(cccc13)C(=O)N(CCCCCCN)C2=O [Marker 1, N-(6-aminohexyl)-4-(6-aminohexylamino)-1,8-naphthalimide]
MIC Sa [1]: 32 | MIC Pp [2]: 999 | MIC Bs [3]: 500 | MIC Ec [4]: 500 | melting point: 113.6 to 114.9 °C | MIC Ps.fl [5]: 500 | MIC K.pn [6]: 999 | MIC Psa [7]: 999 | MIC Ca [8]: 999 | antimicrobial effect (MIC, in words) [9]: little or no antimicrobial effect
